{
  "source": "patent US20230227838A1",
  "about": "“ENHANCED CELL SURVIVAL AGAINST BIOTIC AND ABIOTIC STRESSES THROUGH SALICYLICK ACID-INDUCED NPR1 CONDENSATES” (priority 2020, published 2023)",
  "key": {"EDS1": {"system": "EDS1", "test": "Stability (cycloheximide) and ubiquitination of EDS1", "type": "in vivo, Arabidopsis thaliana", "settings": "WT", "protocol": "(§1) Chemical treatment, pathogen infection and cell death assays. […] At 2 days, the bacterial colonies were scored.\nProtein analysis and IP. Recombinant protein analysis was performed using transient expression in N. benthamiana, or stable over-expression in transgenic Arabidopsis, or expression in E. coli. Total protein extraction from plants was performed by homogenizing leaf tissue in the plant extraction buffer [50 mM Tris-HCl (pH 7.5), 150 mM NaCl, 5 mM EDTA, 0.2% Triton X-100, 0.2% Nonidet P-40] supplemented with 1 mM PMSF, 100 μM MG132, and EDTA-free protease inhibitor cocktail (Roche). For ubiquitinated protein analysis in plants, 100 μM of DUB (deubiquitinase) inhibitor (LifeSensors) and 10 mM NEM were added. Next, the lysates were cleared by centrifugation at 14,000 rpm for 15 min followed by filtering through a 0.2 μm filter. […] Pull-downs or IP experiments were done on total protein extracts by incubating protein samples in the lysis buffer overnight with indicated affinity tag or antibody conjugated to agarose or magnetic beads: GFP-trap agarose beads (Chromotek) for GFP fusions; RFP-trap agarose beads (Chromotek) for mCherry fusions; anti-HA magnetic beads (ThermoFisher) for HA tag fusions; anti-DYKDDDDK coupled magnetic agarose (ThermoFisher) for FLAG tag fusions; and glutathione magnetic agarose (ThermoFisher) for GST fusions. […]"}, "ETI activated by RPS4": {"system": "ETI activated by RPS4", "test": "Cell death after Pf Pf0-1/AvrRps4 inoculation (conductivity assay)", "type": "in vivo, Arabidopsis thaliana", "settings": "SA/NPR1-mediated", "source_text": "as §1"}},
  "data": [
    {"smiles": "O=C(O)c1ccccc1O", "note": "[SA, salicylic acid]", "values": [
      {"measurement": "ubiquitination of EDS1", "setting": "EDS1; 1 mM SA for 6 hr, not in npr1-2 nor eds1-2", "result": "increased SA-mediated ubiquitination of EDS1"},
      {"measurement": "amount of EDS1 in the absence of new protein synthesis", "setting": "EDS1; 1 mM SA 4 hr then 100 μM cycloheximide, 16 hours co-incubation, unchanged in npr1-2", "result": "significantly decreased"},
      {"measurement": "ETI activated by RPS4 (effector AvrRps4)", "setting": "ETI activated by RPS4", "result": "inhibition"}
    ]}
  ]
}
